According to US12312359B2 (Vitae Pharmaceuticals, LLC, priority 2016, dated 2025):

Assays:
[1] = biological target: T1, biotinylated wild-type menin and MLL-AF9 fusion protein (menin/MLL binding) (Homo sapiens, UniProt O00255); experiment: Assay 1: menin/MLL binding AlphaLISA assay, wild-type menin; settings: Table 30; column head does not say wild-type or mutated menin
T1 construct: made in house; host or cells: menin: E. coli; MLL-AF9-FLAG: HEK293 cells, used as cleared lysate
T1 sequence (O00255 1-610): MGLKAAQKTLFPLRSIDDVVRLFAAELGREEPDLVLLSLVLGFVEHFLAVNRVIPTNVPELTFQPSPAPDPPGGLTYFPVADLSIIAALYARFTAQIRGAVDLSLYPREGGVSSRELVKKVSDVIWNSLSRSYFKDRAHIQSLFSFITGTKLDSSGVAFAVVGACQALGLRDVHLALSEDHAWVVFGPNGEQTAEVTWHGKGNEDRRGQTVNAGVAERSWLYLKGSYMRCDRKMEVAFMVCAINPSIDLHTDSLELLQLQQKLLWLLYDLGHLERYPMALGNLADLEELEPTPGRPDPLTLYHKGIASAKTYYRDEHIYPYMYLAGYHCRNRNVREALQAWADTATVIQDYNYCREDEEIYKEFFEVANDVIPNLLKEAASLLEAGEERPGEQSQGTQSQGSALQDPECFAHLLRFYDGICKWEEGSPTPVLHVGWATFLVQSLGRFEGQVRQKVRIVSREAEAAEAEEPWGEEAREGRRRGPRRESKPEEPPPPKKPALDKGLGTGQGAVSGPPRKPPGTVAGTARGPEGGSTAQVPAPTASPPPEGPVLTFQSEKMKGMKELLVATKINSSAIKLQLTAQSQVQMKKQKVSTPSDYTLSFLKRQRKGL
Summary of the method: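 Compound was preincubated 30 min at room temperature with biotinylated menin (5 nM) and MLL-AF9-FLAG lysate from HEK293 cells, pH 7.4 buffer with 5% DMSO and DTT. Bead-based Alpha signal after 60 min with streptavidin donor and anti-FLAG acceptor beads; four-parameter logistic fit gave IC50.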

[2] = system: human acute monocytic leukemia cell line MV-4-11; experiment: Assay 2: cell proliferation assay (ATP quantitation, CellTiter-Glo), MV-4-11; format: cell-based; settings: MV-4-11 cells
Summary of the method: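 MV-4-11 cells, 1.67×10^4 per well in medium with 10% FBS, were exposed to compound for 72 h at 37° C., 5% CO2; HL-60 cells served as toxicity control. Proliferation read as ATP content by CellTiter-Glo luminescence.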

CNC(=O)C1CC1c1cc(F)ccc1Oc1cncnc1N1CCC2(CCN(Cc3ccc4[nH]c(=O)[nH]c4c3)C2)C1 (stereo not drawn) [Example 38, 2-(5-fluoro-2-((4-(7-((2-oxo-2,3-dihydro-1H-benzo[d]imidazol-5-yl)methyl)-2,7-diazaspiro[4.4]nonan-2-yl)pyrimidin-5-yl)oxy)phenyl)-N-methylcyclopropane carboxamide]
IC50 [1]: < 100 nM | EC50 ([2]; Homo sapiens, MV4-11, 72 h): ≥ 1000 nM

CC(C)N(C(=O)c1cc(F)ccc1Oc1cncnc1N1CC2(CN(CC[C@H]3CC[C@H](NC(=O)CC(C)(C)C)CC3)C2)C1)C(C)C [Example 87, 2-((4-(6-(2-((1r,4r)-4-(3,3-dimethyl-butanamido)cyclo-hexyl)ethyl)-2,6-diazaspiro[3.3]heptan-2-yl)pyrimidin-5-yl)oxy)-5-fluoro-N,N-diisopropyl-benzamide]
IC50 [1]: < 100 nM | EC50 ([2]; Homo sapiens, MV4-11, 72 h): 100 to 1000 nM

CC(C)n1nccc1-c1cc(F)ccc1Oc1cncnc1N1CCC2(CCN(Cc3ccc4nn[nH]c4c3)C2)C1 (stereo not drawn) [Example 198, 6-((7-(5-(4-fluoro-2-(1-isopropyl-1H-pyrazol-5-yl)phenoxy)pyrimidin-4-yl)-2,7-diazaspiro[4.4]nonan-2-yl)methyl)-1H-benzo[d][1,2,3] triazole]
IC50 [1]: < 100 nM | EC50 ([2]; Homo sapiens, MV4-11, 72 h): < 100 nM

CC(C)N(C)C(=O)c1cc(F)ccc1Oc1cncnc1N1CCC2(CCN(Cc3ccc4c(c3)NC(=O)C4(C)C#N)C2)C1 (stereo not drawn) [Example 125, 2-((4-(7-((3-cyano-3-methyl-2-oxoindolin-6-yl)methyl)-2,7-diazaspiro [4.4]nonan-2-yl)pyrimidin-5-yl)oxy)-5-fluoro-N-isopropyl-N-methylbenzamide]
IC50 [1]: < 100 nM | EC50 ([2]; Homo sapiens, MV4-11, 72 h): < 100 nM

CC(C)c1ncncc1-c1cc(F)ccc1Oc1cncnc1N1CC2(CC(NC3CCC(C)(C#N)CC3)C2)C1 (single isomer, unassigned) [Example 148B, 4-((2-(5-(4-fluoro-2-(4-isopropylpyrimidin-5-yl)phenoxy)pyrimidin-4-yl)-2-azaspiro[3.3]heptan-6-yl)amino)-1-methylcyclohexane carbonitrile]
IC50 [1]: < 100 nM | EC50 ([2]; 72 h): 100 to 1000 nM

CC(C)c1ccccc1-c1cc(F)ccc1Oc1cnccc1N1CCC2(CCN(Cc3ccc4[nH]c(=O)[nH]c4c3)C2)C1 (stereo not drawn) [Example 249, 5-((7-(3-((5-fluoro-2′-isopropyl-[1,1′-biphenyl]-2-yl)oxy)pyridin-4-yl)-2,7-diazaspiro[4.4]nonan-2-yl)methyl)-1,3-dihydro-2H-benzo[d]imidazol-2-one]
IC50 [1]: < 100 nM | EC50 ([2]; Homo sapiens, MV4-11, 72 h): 100 to 1000 nM

CC(C)c1ncncc1-c1cc(F)ccc1Oc1cncnc1N1CC2(CN(C(=O)Cc3ccc4c(c3)NC(=O)C4(C)C)C2)C1 [Example 133, 6-(2-(6-(5-(4-fluoro-2-(4-isopropylpyrimidin-5-yl)phenoxy)pyrimidin-4-yl)-2,6-diazaspiro[3.3]heptan-2-yl)-2-oxoethyl)-3,3-dimethylindolin-2-one]
IC50 [1]: < 100 nM | EC50 ([2]; Homo sapiens, MV4-11, 72 h): 100 to 1000 nM

CC(C)C(=O)c1cc(F)ccc1Oc1cncnc1N1CCC2(CCN(Cc3ccc4c(c3)NC(=O)C4(C)C#N)C2)C1 (stereo not drawn) [Example 11, 6-((7-(5-(4-fluoro-2-isobutyrylphenoxy)pyrimidin-4-yl)-2,7-diazaspiro[4.4]nonan-2-yl)methyl)-3-methyl-2-oxoindoline-3-carbonitrile]
IC50 [1]: < 100 nM | EC50 ([2]; Homo sapiens, MV4-11, 72 h): < 100 nM

CN(C(=O)c1cc(F)ccc1Oc1cncnc1N1CCC2(CCN(Cc3ccc4[nH]c(=O)[nH]c4c3)C2)C1)C(C)(C)C (stereo not drawn) [Example 175, N-(tert-butyl)-5-fluoro-N-methyl-2-((4-(7-((2-oxo-2,3-dihydro-1H-benzo[d]imidazol-5-yl)methyl)-2,7-diazaspiro[4.4]nonan-2-yl)pyrimidin-5-yl)oxy)benzamide]
IC50 [1]: < 100 nM | EC50 ([2]; Homo sapiens, MV4-11, 72 h): ≥ 1000 nM

CC(=O)NCCn1c(=O)[nH]c2cc(CN3CCC4(CCN(c5ncncc5Oc5ccc(F)cc5C(=O)N(C)C(C)C)C4)C3)ccc21 (stereo not drawn) [Example 123, 2-((4-(7-((1-(2-acetamidoethyl)-2-oxo-2,3-dihydro-1H-benzo[d]imidazol-5-yl)methyl)-2,7-diazaspiro[4.4]nonan-2-yl)pyrimidin-5-yl)oxy)-5-fluoro-N-isopropyl-N-methylbenzamide]
IC50 [1]: < 100 nM | EC50 ([2]; Homo sapiens, MV4-11, 72 h): ≥ 1000 nM

CN(C(=O)c1cc(F)ccc1Oc1cncnc1N1CCC2(CCN(Cc3ccc4[nH]c(=O)[nH]c4c3)C2)C1)C1CC1 (stereo not drawn) [Example 165, N-cyclopropyl-5-fluoro-N-methyl-2-((4-(7-((2-oxo-2,3-dihydro-1H-benzo[d]imidazol-5-yl)methyl)-2,7-diazaspiro[4.4]nonan-2-yl)pyrimidin-5-yl)oxy)benzamide]
IC50 [1]: < 100 nM | EC50 ([2]; Homo sapiens, MV4-11, 72 h): ≥ 1000 nM

N#Cc1ccc2c(CN3CCC4(CCN(c5ncncc5Oc5ccc(F)cc5OC5CCCC5)C4)C3)c[nH]c2c1 (stereo not drawn) [Example 192, 3-((7-(5-(2-(cyclopentyloxy)-4-fluorophenoxy)pyrimidin-4-yl)-2,7-diazaspiro[4.4]nonan-2-yl)methyl)-1H-indole-6-carbonitrile]
IC50 [1]: < 100 nM | EC50 ([2]; Homo sapiens, MV4-11, 72 h): 100 to 1000 nM

CC(C)N(C(=O)c1cc(F)ccc1Oc1cncnc1N1CCC2(CC(Cc3ccc(F)cc3)N(CCO)C2)C1)C(C)C (single isomer, unassigned) [Example 26B, 5-fluoro-2-((4-(8-(4-fluorobenzyl)-7-(2-hydroxyethyl)-2,7-diazaspiro[4.4]nonan-2-yl)pyrimidin-5-yl)oxy)-N,N-diisopropylbenzamide]
IC50 [1]: < 100 nM | EC50 ([2]; 72 h): ≥ 1000 nM

CCN(C(=O)c1cc(F)ccc1Oc1cncnc1N1CCC2(CCN(Cc3ccc4[nH]c(=O)[nH]c4c3)C2)C1)C(C)C (single isomer, unassigned) [Example 2A, N-ethyl-5-fluoro-N-isopropyl-2-((4-(7-((2-oxo-2,3-dihydro-1H-benzo[d]imidazol-5-yl)methyl)-2,7-diazaspiro[4.4]nonan-2-yl)pyrimidin-5-yl)oxy)benzamide]
IC50 [1]: < 100 nM | EC50 ([2]; 72 h): < 100 nM

CC1(C)C(=O)Nc2cc(CN3CCC4(CCN(c5ncncc5Oc5ccc(F)cc5-c5cccnc5C5CC5)C4)C3)ccc21 (stereo not drawn) [Example 179, 6-((7-(5-(2-(2-cyclopropylpyridin-3-yl)-4-fluorophenoxy)pyrimidin-4-yl)-2,7-diazaspiro[4.4]nonan-2-yl)methyl)-3,3-dimethylindolin-2-one]
IC50 [1]: < 100 nM | EC50 ([2]; Homo sapiens, MV4-11, 72 h): < 100 nM

N#Cc1ccc(-c2cc(F)cc(F)c2Oc2cncnc2N2CCC3(CCN(Cc4ccc5[nH]c(=O)[nH]c5c4)C3)C2)c(C2CC2)c1 (stereo not drawn) [Example 52, 2-cyclopropyl-3′,5′-difluoro-2′-((4-(7-((2-oxo-2,3-dihydro-1H-benzo[d]imidazol-5-yl)methyl)-2,7-diazaspiro[4.4]nonan-2-yl)pyrimidin-5-yl)oxy)-[1,1′-biphenyl]-4-carbonitrile]
IC50 [1]: < 100 nM | EC50 ([2]; 72 h): < 100 nM

COC(C)c1ccccc1-c1cc(F)ccc1Oc1cncnc1N1CC2(CN(CC3CCOCC3)C2)C1 (stereo not drawn) [Example 67, 2-(5-((5-fluoro-2′-(1-methoxyethyl)-[1,1′-biphenyl]-2-yl)oxy)pyrimidin-4-yl)-6-((tetrahydro-2H-pyran-4-yl)methyl)-2,6-diazaspiro[3.3]heptane]
IC50 [1]: < 100 nM | EC50 ([2]; Homo sapiens, MV4-11, 72 h): 100 to 1000 nM

CCN(C(=O)c1cc(F)ccc1Oc1cncnc1N1CCC2(CCN(Cc3ccc4[nH]c(=O)[nH]c4c3)C2)C1)C(C)C (racemic) [Example 2, N-ethyl-5-fluoro-N-isopropyl-2-((4-(7-((2-oxo-2,3-dihydro-1H-benzo[d]imidazol-5-yl)methyl)-2,7-diazaspiro[4.4]nonan-2-yl)pyrimidin-5-yl)oxy)benzamide]
IC50 [1]: < 100 nM | EC50 ([2]; Homo sapiens, MV4-11, 72 h): < 100 nM

Fc1ccc(Oc2cncnc2N2CCC3(CCN(CC4CCOCC4)C3)C2)c(OC2CCCC2)c1 (stereo not drawn) [Example 108, 2-(5-(2-(cyclopentyloxy)-4-fluorophenoxy)pyrimidin-4-yl)-7-((tetrahydro-2H-pyran-4-yl)methyl)-2,7-diazaspiro[4.4]nonane]
IC50 [1]: < 100 nM | EC50 ([2]; Homo sapiens, MV4-11, 72 h): ≥ 1000 nM

CCN(C(=O)C(C)C)c1cc(F)ccc1Oc1cncnc1N1CC2(CCN(C[C@H]3CC[C@H](NS(C)(=O)=O)CC3)CC2)C1 [Example 86, N-ethyl-N-(5-fluoro-2-((4-(7-(((1r,4r)-4-(methylsulfonamido)cyclohexyl)methyl)-2,7-diazaspiro [3.5]nonan-2-yl)pyrimidin-5-yl)oxy)phenyl)iso-butyramide]
IC50 [1]: < 100 nM | EC50 ([2]; Homo sapiens, MV4-11, 72 h): < 100 nM

CCN(C(=O)C(C)C)c1cc(F)ccc1Oc1cncnc1N1CC2(CCN(CC3CCOCC3)CC2)C1 [Example 110, N-ethyl-N-(5-fluoro-2-((4-(7-((tetrahydro-2H-pyran-4-yl)methyl)-2,7-diazaspiro[3.5]nonan-2-yl)pyrimidin-5-yl)oxy)phenyl)iso-butyramide]
IC50 [1]: < 100 nM | EC50 ([2]; Homo sapiens, MV4-11, 72 h): 100 to 1000 nM
